Drawing on US11040031B2, “Pyrazole derivatives as MALT1 inhibitors” (Janssen Pharmaceutica NV, priority 2018, dated 2021), this text covers IC50 for 14 compounds.

Experiment [1] deals with T1, full-length MALT1 protein (Strep-MALT1(1-824)-His) (Homo sapiens, UniProt Q9UDY8).
T1 sequence (Q9UDY8 1-824): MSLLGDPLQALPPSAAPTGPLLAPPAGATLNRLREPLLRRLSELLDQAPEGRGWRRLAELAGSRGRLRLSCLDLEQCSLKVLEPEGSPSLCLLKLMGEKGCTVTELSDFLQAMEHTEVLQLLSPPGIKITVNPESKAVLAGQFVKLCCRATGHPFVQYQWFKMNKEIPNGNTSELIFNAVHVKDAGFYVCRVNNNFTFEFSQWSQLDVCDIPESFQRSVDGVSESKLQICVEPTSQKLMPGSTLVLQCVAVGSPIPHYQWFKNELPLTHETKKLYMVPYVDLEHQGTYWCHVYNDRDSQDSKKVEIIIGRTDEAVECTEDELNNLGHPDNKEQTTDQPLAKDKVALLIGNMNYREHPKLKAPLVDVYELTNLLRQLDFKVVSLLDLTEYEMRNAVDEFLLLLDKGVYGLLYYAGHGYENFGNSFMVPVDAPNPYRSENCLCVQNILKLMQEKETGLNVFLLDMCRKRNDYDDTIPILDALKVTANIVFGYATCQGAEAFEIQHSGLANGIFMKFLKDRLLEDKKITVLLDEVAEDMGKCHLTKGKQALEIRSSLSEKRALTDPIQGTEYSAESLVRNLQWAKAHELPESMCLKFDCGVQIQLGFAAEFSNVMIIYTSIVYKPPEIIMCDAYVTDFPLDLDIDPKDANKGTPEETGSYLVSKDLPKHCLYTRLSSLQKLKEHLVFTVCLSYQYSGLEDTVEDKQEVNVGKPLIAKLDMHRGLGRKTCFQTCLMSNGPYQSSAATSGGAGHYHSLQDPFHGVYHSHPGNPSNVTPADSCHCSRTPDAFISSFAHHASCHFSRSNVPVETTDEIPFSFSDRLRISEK
Briefly: biochemical.

For experiment [2], the system named is Secretion of IL6 by OCI-LY3 ABC-DLBCL cells. Put plainly: Human IL6 Mesoscale assay (OCI-LY3). Format: cell-based. The following applies: OCI-LY3 cells, 24 h incubation, supernatant, MSD V-Plex, read-out: Human IL6 Mesoscale assay (OCI-LY3). The essentials:
(§1)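 TMD8 or OCI-LY3 ABC-DLBCL cells incubated with compound 24 h at 37° C without beta-mercaptoethanol. Secreted IL6 and IL10 in supernatant quantified by MSD electrochemiluminescence immunoassay; DMSO wells define maximum signal.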

The test system of experiment [3] is Secretion of IL6 by TMD8 ABC-DLBCL cells. Put plainly: Human IL6 Mesoscale assay (TMD-8). Conditions: read-out: Human IL6 Mesoscale assay (TMD-8). Format: cell-based. The protocol:
(§2) NFKB signaling regulates the secretion of multiple cytokines, including IL6 and IL10. Secretion of the cytokines IL6 and IL10 by TMD8 or OCI-LY3 ABC-DLBCL cells was measured using a mesoscale assay.
(§3) Cell passage number should not exceed 30. Cells should be kept between 0.5-2.5 million cells per mL during culturing and cells should be supplemented every 2-3 days with fresh 50 µM beta-mercaptoenthanol. No beta-mercaptoethanol was used during the mesoscale assay.
(§4) DMSO control wells were used to determine the maximum signal (High Control (HC)). […] Compounds and cells were incubated for 24 h at 37° C. and 5% CO2 (assay volume is 150 μL). After 24 h of incubation 50 μL of the supernatant was transferred to a MSD plate (V-Plex Proinflammation Panel 1 (human) kit, Mesoscale (MSD)) and incubated for 2 h with vigorous shaking (600 rpm) at room temperature. Following incubation, plates were washed 3× with PBS+0.05% Tween-20 and 25 μL detection antibody solution (IL6 & IL10 antibodies in diluent 3 (MSD)) was added per well followed by 2 h of incubation with vigorous shaking (600 rpm) at room temperature. After 3× washes with PBS+0.05% Tween-20, plates were incubated with 150 μL 2× Read Buffer T and read on SECTOR imager.

For experiment [4], the system named is Secretion of IL10 by OCI-LY3 ABC-DLBCL cells. Briefly: Human IL10 Mesoscale assay (OCI-LY3). It is filed as cell-based. Conditions: OCI-LY3 cells, 24 h incubation, supernatant, MSD V-Plex, read-out: Human IL10 Mesoscale assay (OCI-LY3). In outline: as §1
For experiment [5], the system named is Secretion of IL10 by TMD8 ABC-DLBCL cells. Briefly: Human IL10 Mesoscale assay (TMD-8). Format: cell-based. The following applies: read-out: Human IL10 Mesoscale assay (TMD-8). The protocol:
as §2, §3, §4

The test system of experiment [6] is OCI-Ly3 ABC-DLBCL cell line. Put plainly: 4-day proliferation assay OCI-Ly3. Format: cell-based. The following applies: Homo sapiens, read-out: Anti-proliferation: OCI-LY-3 IC50. In outline: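 10,000 OCI-Ly3 cells per well cultured 4 days at 37° C., 5% CO2 without beta-mercaptoethanol, at densities giving linear growth. Viability read by CellTiterGLO luminescence after 10 min at room temperature.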

Where [7] appears, read: TMD8 cells, 24 h incubation, supernatant, MSD V-Plex.
Where [8] appears, read: 96 h, 10,000 OCI-Ly3 cells per well, 4 days, CellTiterGLO.

Like-named read-outs stand apart in the source and are kept apart here.

Turning to `Cc1cc(F)ccc1-n1ncc(C(=O)Nc2cnc(-n3nccn3)c(Cl)c2)c1C(F)(F)F` [Cpd 1, N-(5-Chloro-6-(2H-1,2,3-triazol-2-yl)pyridin-3-yl)-1-(4-fluoro-2-methylphenyl)-5-(trifluoromethyl)-1H-pyrazole-4-carboxamide], the IC50 was 117 nM in experiment [1]; 83 nM in experiment [2]; 79 nM in experiment [3] (setting [7]); 58 nM in experiment [4]; 85 nM in experiment [5] (setting [7]); 1350 nM in experiment [6] (setting [8]).
With `N#Cc1cc(NC(=O)c2cnn(-c3ncc(F)cc3Br)c2C(F)(F)F)cnc1-n1nccn1` [Cpd 34, 1-(3-Bromo-5-fluoropyridin-2-yl)-N-(5-cyano-6-(2H-1,2,3-triazol-2-yl)pyridin-3-yl)-5-(trifluoromethyl)-1H-pyrazole-4-carboxamide], the IC50 in experiment [1] is 145 nM; in experiment [3] (TMD8, 24 h) it was 407 nM; in experiment [5] (TMD8, 24 h) it was 631 nM; in experiment [6] (OCI-Ly3, 96 h) it was 457 nM.
The like results for `N#Cc1cc(NC(=O)c2cnn(-c3nccc(Cl)c3Cl)c2C(F)(F)F)cnc1-n1nccn1` [Cpd 36, N-(5-Cyano-6-(2H-1,2,3-triazol-2-yl)pyridin-3-yl)-1-(3,4-dichloropyridin-2-yl)-5-(trifluoromethyl)-1H-pyrazole-4-carboxamide] were, in that order, 214 nM, 1550 nM, 1150 nM and 4270 nM.
`Cc1nccc(-n2ncc(C(=O)Nc3cnc(-n4nccn4)c(C#N)c3)c2C(F)(F)F)c1Cl` [Cpd 43, 1-(3-chloro-2-methylpyridin-4-yl)-N-(5-cyano-6-(2H-1,2,3-triazol-2-yl)pyridin-3-yl)-5-(trifluoromethyl)-1H-pyrazole-4-carboxamide]: the IC50 came to 170 nM in experiment [1], 4790 nM in experiment [3] (setting [7]), 2240 nM in experiment [5] (setting [7]) and 6310 nM in experiment [6] (setting [8]).
For the compound `N#Cc1cc(NC(=O)c2cnn(-c3ncccc3Cl)c2C(F)(F)F)cnc1-n1nccn1` [Cpd 44, 1-(3-Chloropyridin-2-yl)-N-(5-cyano-6-(2H-1,2,3-triazol-2-yl)pyridin-3-yl)-5-(trifluoromethyl)-1H-pyrazole-4-carboxamide], the IC50 amounted to 389 nM in experiment [1], 490 nM in experiment [3] (setting [7]), 1230 nM in experiment [5] (setting [7]) and 11000 nM in experiment [6] (setting [8]).
In the case of `N#Cc1cc(NC(=O)c2cnn(-c3ccncc3Cl)c2C(F)(F)F)cnc1-n1nccn1` [Cpd 45, 1-(3-chloropyridin-4-yl)-N-(5-cyano-6-(2H-1,2,3-triazol-2-yl)pyridin-3-yl)-5-(trifluoromethyl)-1H-pyrazole-4-carboxamide], the IC50 in experiment [1] was 87 nM; in experiment [3] (setting [7]), 162 nM; in experiment [5] (setting [7]), 339 nM; in experiment [6] (setting [8]) it was 4790 nM.
Consider `N#Cc1cc(NC(=O)c2cnn(-c3c(Cl)cncc3Cl)c2C(F)(F)F)cnc1-n1nccn1` [Cpd 48, N-(5-cyano-6-(2H-1,2,3-triazol-2-yl)pyridin-3-yl)-1-(3,5-dichloropyridin-4-yl)-5-(trifluoromethyl)-1H-pyrazole-4-carboxamide], for which the IC50 in experiment [1] turned out to be 204 nM; in experiment [3] (TMD8, 24 h), 1620 nM; in experiment [5] (TMD8, 24 h), 513 nM; in experiment [6] (OCI-Ly3, 96 h), 3630 nM.
Take `N#Cc1cc(NC(=O)c2cnn(-c3cccc4c3OCCO4)c2C(F)(F)F)cnc1-n1nccn1` [Cpd 49, N-(5-cyano-6-(2H-1,2,3-triazol-2-yl)pyridin-3-yl)-1-(2,3-dihydrobenzo[b][1,4]dioxin-5-yl)-5-(trifluoromethyl)-1H-pyrazole-4-carboxamide]: the IC50 in experiment [1] worked out at 148 nM; in experiment [3] (setting [7]), 145 nM; in experiment [5] (setting [7]) it was 151 nM; in experiment [6] (setting [8]), 437 nM.
With `N#Cc1cc(NC(=O)c2cnn(-c3cccc4c3OCO4)c2C(F)(F)F)cnc1-n1nccn1` [Cpd 59, 1-(benzo[d][1,3]dioxol-4-yl)-N-(5-cyano-6-(2H-1,2,3-triazol-2-yl)pyridin-3-yl)-5-(trifluoromethyl)-1H-pyrazole-4-carboxamide], the IC50 in experiment [1] was determined as 41 nM; in experiment [3] (TMD8, 24 h), 35 nM; in experiment [5] (TMD8, 24 h), 48 nM; in experiment [6] (OCI-Ly3, 96 h), 468 nM.
Take `Cc1cc(-n2ncc(C(=O)Nc3cnc(-n4nccn4)c(Cl)c3)c2C(F)(F)F)c(Cl)cn1` [Cpd 68, 1-(5-chloro-2-methylpyridin-4-yl)-N-(5-chloro-6-(2H-1,2,3-triazol-2-yl)pyridin-3-yl)-5-(trifluoromethyl)-1H-pyrazole-4-carboxamide]: the IC50 in experiment [1] was found to be 427 nM; in experiment [3] (TMD8, 24 h), 5500 nM; in experiment [5] (TMD8, 24 h), 7080 nM; in experiment [6] (OCI-Ly3, 96 h), 7080 nM.
`Cc1nccc(-n2ncc(C(=O)Nc3cnc(-n4nccn4)c(Cl)c3)c2C(F)(F)F)c1Cl` [Cpd 69, 1-(3-chloro-2-methylpyridin-4-yl)-N-(5-chloro-6-(2H-1,2,3-triazol-2-yl)pyridin-3-yl)-5-(trifluoromethyl)-1H-pyrazole-4-carboxamide]: the IC50 in experiment [1] was determined as 257 nM; in experiment [3] (setting [7]), 2290 nM; in experiment [5] (setting [7]), 3240 nM; in experiment [6] (setting [8]), 2090 nM.
Turning to `Cc1cc(-n2ncc(C(=O)Nc3cnc(-n4nccn4)c(C#N)c3)c2C(F)(F)F)c(Cl)cn1` [Cpd 70, 1-(5-chloro-2-methylpyridin-4-yl)-N-(5-cyano-6-(2H-1,2,3-triazol-2-yl)pyridin-3-yl)-5-(trifluoromethyl)-1H-pyrazole-4-carboxamide], the IC50 in experiment [1] was 204 nM; in experiment [3] (TMD8, 24 h) it was 4470 nM; in experiment [5] (TMD8, 24 h), 3550 nM; in experiment [6] (OCI-Ly3, 96 h) it was 6610 nM.
Consider `N#Cc1cc(NC(=O)c2cnn(-c3ncc(F)cc3Cl)c2C(F)(F)F)cnc1-n1nccn1` [Cpd 106, 1-(3-chloro-5-fluoropyridin-2-yl)-N-(5-cyano-6-(2H-1,2,3-triazol-2-yl)pyridin-3-yl)-5-(trifluoromethyl)-1H-pyrazole-4-carboxamide], for which the IC50 in experiment [1] is 251 nM; in experiment [3] (setting [7]) it was 2290 nM; in experiment [5] (setting [7]), 2040 nM; in experiment [6] (setting [8]), 2880 nM.
In the case of `CN1CCOc2c1cccc2-n1ncc(C(=O)Nc2cnc(-n3nccn3)c(C#N)c2)c1C(F)(F)F` [Cpd 132, N-(5-cyano-6-(2H-1,2,3-triazol-2-yl)pyridin-3-yl)-1-(4-methyl-3,4-dihydro-2H-benzo[b][1,4]oxazin-8-yl)-5-(trifluoromethyl)-1H-pyrazole-4-carboxamide], the IC50 in experiment [1] turned out to be 191 nM; in experiment [3] (setting [7]), 550 nM; in experiment [5] (setting [7]), 1350 nM; in experiment [6] (setting [8]), 1100 nM.
